# Source: patent EP4745135A1 (Gluetacs Therapeutics (Shanghai) Co., Ltd., priority 2023, dated 2025)
# Like-named read-outs stand apart in the source and are kept apart here.
# Experiments:
# [1] = system: Human gastric cancer cell line: MGC803; experiment: Tumor cell proliferation inhibition (CellTiter-Meiluncell luminescent cell viability assay); settings: MGC-803, read-out: Inhibitory activity (IC50, nM) on tumor cell proliferation, MGC803
# Description: (§1) The IC50 values of the compounds of the present disclosure (including the compounds in Table 1 and Examples) were determined using the CellTiter-Meiluncell Luminescent Cell Viability Assay Kit from Dalian Meilun Biotech Co., Ltd. The detailed procedure is as follows: Tumor cells were seeded in 96-well cell culture plates at the densities specified in Table 3. On the following day, the test compounds of the present disclosure were subjected to serial dilution. The dilution can be performed according to one of the following two methods: • (1) The first dilution method: The test compounds of the present disclosure (including the compounds in Table 1 and Examples) were subjected to 5-fold serial dilutions starting from a highest concentration of 2000 µM, resulting in a total of 9 concentrations from high to low (2000, 400, 80, 16, 3.2, 0.64, 0.128, 0.0256, 0.00512 µM). Subsequently, 0.5 µL of the test compound dilution was transferred into the 96-well plate containing the cells, with each well containing 100 µL of cell culture medium. […] Into the 96-well plate, the diluted test compounds and corresponding detection reagents were added, resulting in final test compound concentrations of 500 nM and 10 nM, respectively. The experimental procedure is described below using the diluted 2 µM test compound as an example.
# (§2) 0.5 µL of the aforementioned diluted compound of the present disclosure (including the compounds in Table 1 and Examples) was added to the seeded cells in 100 µL of medium, yielding a final test compound concentration of 10 nM. After the cells were treated with the compounds of the present disclosure for a specified period, the cell viability assay reagent was added to the culture medium according to the kit's instructions to determine cell viability. […] All controls were treated using the same procedure as the compounds of the present disclosure. The growth inhibition curves for the compounds of the present disclosure were plotted using Prism GraphPad software, and the IC50 values were calculated therefrom.
# [2] = system: Human mantle cell lymphoma cell line: JEKO-1; experiment: as above; settings: JeKo-1, 96 h, read-out: Inhibitory activity (IC50, nM) on tumor cell proliferation, JEKO-1
# Description: (§3) The tumor cells used herein were cultured in a cell culture medium listed in table 2 at 37°C in an incubator with 5% CO2. Prior to experimentation, all cell lines used were correctly identified by STR profiling, and tested negative for mycoplasma contamination using a mycoplasma detection kit through routine screenings.
# as §1, §2
# GSPT1 = experiment: Western blot, degradation of substrate protein in hPBMCs; type: cell-based, Human; settings: Western blot, 24 hours of compound treatment, compounds tested at 50 nM and 500 nM (concentration for the table not stated)
# [3] = biological target: T1, human Cereblon WT GST-tagged protein (Homo sapiens, UniProt Q96SW2); experiment: CRBN-binding affinity, HTRF (CEREBLON BINDING kit)
# T1 construct: purchased CISBIO 64BDCRBNPEH
# [4] = system: Human multiple myeloma cell (MM.1S); experiment: Tumor cell proliferation inhibition (CellTiter-Meiluncell luminescent cell viability assay); settings: Homo sapiens, MM1.S, 96 h, read-out: Inhibitory activity (IC50, nM) on tumor cell proliferation, MM.1S
# WEE1 = biological target: T2, WEE1 (Homo sapiens, UniProt P30291+Q96SW2); experiment: Western blot, degradation of substrate protein in hPBMCs; type: cell-based; settings: Western blot, 24 hours of compound treatment, compounds tested at 50 nM and 500 nM (concentration for the table not stated)
# T2 construct: effects of the compounds of the present disclosure on the expression of target proteins in cells; endogenous in cells; host or cells: human PBMCs (Milecell Biotechnologies)
# CK1α = biological target: T3, CK1α (Homo sapiens, UniProt P48729+Q96SW2); experiment: as above; type: cell-based; settings: Western blot, 24 hours of compound treatment, compounds tested at 50 nM and 500 nM (concentration for the table not stated)
# T3 construct: effects of the compounds of the present disclosure on the expression of target proteins in cells; endogenous in cells; host or cells: human PBMCs (Milecell Biotechnologies)
# IKZF2 = biological target: T4, IKZF2 (Homo sapiens, UniProt Q96SW2+Q9UKS7); experiment: as above; type: cell-based; settings: Western blot, 24 hours of compound treatment, compounds tested at 50 nM and 500 nM (concentration for the table not stated)
# T4 construct: effects of the compounds of the present disclosure on the expression of target proteins in cells; endogenous in cells; host or cells: human PBMCs (Milecell Biotechnologies)
# IKZF1 = biological target: T5, IKZF1 (Homo sapiens, UniProt Q13422+Q96SW2); experiment: as above; type: cell-based; settings: Western blot, 24 hours of compound treatment, compounds tested at 50 nM and 500 nM (concentration for the table not stated)
# T5 construct: effects of the compounds of the present disclosure on the expression of target proteins in cells; endogenous in cells; host or cells: human PBMCs (Milecell Biotechnologies)
# IKZF3 = biological target: T6, IKZF3 (Homo sapiens, UniProt Q96SW2+Q9UKT9); experiment: as above; type: cell-based; settings: Western blot, 24 hours of compound treatment, compounds tested at 50 nM and 500 nM (concentration for the table not stated)
# T6 construct: effects of the compounds of the present disclosure on the expression of target proteins in cells; endogenous in cells; host or cells: human PBMCs (Milecell Biotechnologies)
# [5] = system: Human T lymphocytic leukemia cell line: Jurkat; experiment: Tumor cell proliferation inhibition (CellTiter-Meiluncell luminescent cell viability assay); settings: 96 h, read-out: Inhibitory activity (IC50, nM) on tumor cell proliferation, Jurkat
# [6] = system: Human breast cancer cell (MCF-7); experiment: as above; settings: MCF7, 96 h, read-out: Inhibitory activity (IC50, nM) on tumor cell proliferation, MCF7
# [7] = system: Human non-small cell lung cancer cell line: NCI-H1975; experiment: as above; settings: NCI-H1975, 96 h, read-out: Inhibitory activity (IC50, nM) on tumor cell proliferation, H1975
# Description: as §3, §1, §2
# [8] = CRBN binding, HTRF, 3 hours at room temperature; read-out: HTRF IC50
# T3 sequence (P48729 whole entry): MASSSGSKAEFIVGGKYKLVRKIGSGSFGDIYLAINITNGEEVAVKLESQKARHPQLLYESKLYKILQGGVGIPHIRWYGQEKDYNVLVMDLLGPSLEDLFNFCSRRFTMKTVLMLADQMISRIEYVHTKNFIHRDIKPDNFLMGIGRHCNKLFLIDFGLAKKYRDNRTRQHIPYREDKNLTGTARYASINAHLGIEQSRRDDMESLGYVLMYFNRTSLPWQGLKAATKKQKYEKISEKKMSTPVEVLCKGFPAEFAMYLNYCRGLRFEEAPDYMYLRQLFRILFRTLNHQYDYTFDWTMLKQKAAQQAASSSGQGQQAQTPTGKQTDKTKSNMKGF
# T3 sequence (Q96SW2 whole entry): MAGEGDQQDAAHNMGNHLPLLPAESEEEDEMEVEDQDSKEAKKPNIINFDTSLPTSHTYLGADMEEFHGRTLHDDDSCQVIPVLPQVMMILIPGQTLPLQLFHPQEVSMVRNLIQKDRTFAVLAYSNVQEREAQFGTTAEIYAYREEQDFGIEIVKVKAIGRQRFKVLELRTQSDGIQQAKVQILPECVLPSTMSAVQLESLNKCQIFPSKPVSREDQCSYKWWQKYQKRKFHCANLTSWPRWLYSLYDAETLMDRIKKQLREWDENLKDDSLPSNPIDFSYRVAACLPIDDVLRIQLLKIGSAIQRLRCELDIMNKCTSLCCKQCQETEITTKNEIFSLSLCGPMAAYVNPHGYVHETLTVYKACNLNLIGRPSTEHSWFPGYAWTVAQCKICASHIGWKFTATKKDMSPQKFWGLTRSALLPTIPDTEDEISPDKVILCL
# T3 sequence (Q16531 whole entry partner): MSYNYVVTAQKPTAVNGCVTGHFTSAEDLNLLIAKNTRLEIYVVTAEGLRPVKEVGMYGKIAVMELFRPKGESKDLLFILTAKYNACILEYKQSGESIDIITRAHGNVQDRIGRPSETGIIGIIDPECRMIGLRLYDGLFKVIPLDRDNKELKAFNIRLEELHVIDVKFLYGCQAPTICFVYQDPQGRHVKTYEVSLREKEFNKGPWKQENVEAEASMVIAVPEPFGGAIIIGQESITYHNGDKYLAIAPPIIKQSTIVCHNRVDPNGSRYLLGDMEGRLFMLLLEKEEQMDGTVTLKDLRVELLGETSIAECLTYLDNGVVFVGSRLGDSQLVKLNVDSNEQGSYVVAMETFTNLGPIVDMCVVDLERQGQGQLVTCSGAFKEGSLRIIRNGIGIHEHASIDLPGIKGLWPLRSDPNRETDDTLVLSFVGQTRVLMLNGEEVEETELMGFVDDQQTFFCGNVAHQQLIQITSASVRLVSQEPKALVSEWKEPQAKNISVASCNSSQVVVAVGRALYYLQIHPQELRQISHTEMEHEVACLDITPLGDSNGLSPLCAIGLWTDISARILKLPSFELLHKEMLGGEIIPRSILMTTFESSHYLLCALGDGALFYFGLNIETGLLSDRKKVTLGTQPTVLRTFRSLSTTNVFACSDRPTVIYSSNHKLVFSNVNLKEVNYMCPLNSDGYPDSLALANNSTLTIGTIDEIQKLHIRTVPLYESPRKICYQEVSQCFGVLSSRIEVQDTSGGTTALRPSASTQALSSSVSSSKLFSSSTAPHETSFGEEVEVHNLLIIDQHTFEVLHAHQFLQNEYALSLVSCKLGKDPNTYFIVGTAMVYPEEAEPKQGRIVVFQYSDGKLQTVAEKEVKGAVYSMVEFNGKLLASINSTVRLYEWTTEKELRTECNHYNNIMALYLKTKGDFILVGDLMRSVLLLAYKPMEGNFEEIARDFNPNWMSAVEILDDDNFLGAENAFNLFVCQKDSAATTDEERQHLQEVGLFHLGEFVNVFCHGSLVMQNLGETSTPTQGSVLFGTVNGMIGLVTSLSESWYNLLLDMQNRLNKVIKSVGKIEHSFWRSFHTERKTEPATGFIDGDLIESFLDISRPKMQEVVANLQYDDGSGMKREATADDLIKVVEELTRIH
# T2 sequence (P30291 whole entry): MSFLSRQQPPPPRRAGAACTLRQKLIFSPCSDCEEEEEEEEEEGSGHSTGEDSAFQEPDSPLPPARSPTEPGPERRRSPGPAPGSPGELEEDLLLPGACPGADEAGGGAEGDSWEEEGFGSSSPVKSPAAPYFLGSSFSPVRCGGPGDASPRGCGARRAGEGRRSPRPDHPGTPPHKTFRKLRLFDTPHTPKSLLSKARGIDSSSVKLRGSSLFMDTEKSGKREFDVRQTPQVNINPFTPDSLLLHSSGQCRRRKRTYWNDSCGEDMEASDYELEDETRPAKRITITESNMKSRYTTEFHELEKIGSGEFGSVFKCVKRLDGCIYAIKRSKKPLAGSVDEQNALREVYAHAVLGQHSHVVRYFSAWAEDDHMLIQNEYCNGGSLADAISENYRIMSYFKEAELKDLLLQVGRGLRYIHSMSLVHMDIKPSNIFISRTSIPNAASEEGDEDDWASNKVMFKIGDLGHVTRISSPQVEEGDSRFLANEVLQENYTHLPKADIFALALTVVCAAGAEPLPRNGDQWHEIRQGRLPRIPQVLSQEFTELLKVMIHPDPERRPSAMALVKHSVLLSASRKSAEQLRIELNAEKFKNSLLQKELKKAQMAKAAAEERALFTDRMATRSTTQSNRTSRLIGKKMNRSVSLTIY
# T2 sequence (Q96SW2 whole entry): as the sequence (Q96SW2 whole entry) above
# T2 sequence (Q16531 whole entry partner): as the sequence (Q16531 whole entry partner) above
# T5 sequence (Q13422 whole entry): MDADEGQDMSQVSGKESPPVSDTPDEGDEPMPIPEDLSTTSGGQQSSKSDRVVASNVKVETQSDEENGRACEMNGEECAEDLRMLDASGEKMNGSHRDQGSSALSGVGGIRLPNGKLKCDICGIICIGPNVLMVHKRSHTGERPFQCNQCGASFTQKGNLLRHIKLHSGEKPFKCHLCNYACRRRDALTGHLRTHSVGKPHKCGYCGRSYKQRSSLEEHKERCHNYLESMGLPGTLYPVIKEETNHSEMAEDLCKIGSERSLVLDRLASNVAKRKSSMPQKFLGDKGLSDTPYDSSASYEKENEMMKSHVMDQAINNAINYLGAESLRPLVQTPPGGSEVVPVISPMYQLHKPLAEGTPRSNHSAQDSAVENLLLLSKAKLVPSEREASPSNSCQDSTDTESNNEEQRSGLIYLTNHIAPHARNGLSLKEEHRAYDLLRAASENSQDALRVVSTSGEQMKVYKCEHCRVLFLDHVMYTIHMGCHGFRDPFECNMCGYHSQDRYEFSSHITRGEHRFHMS
# T5 sequence (Q96SW2 whole entry): as the sequence (Q96SW2 whole entry) above
# T5 sequence (Q16531 whole entry partner): as the sequence (Q16531 whole entry partner) above
# T1 sequence (Q96SW2 whole entry): as the sequence (Q96SW2 whole entry) above
# T4 sequence (Q9UKS7 whole entry): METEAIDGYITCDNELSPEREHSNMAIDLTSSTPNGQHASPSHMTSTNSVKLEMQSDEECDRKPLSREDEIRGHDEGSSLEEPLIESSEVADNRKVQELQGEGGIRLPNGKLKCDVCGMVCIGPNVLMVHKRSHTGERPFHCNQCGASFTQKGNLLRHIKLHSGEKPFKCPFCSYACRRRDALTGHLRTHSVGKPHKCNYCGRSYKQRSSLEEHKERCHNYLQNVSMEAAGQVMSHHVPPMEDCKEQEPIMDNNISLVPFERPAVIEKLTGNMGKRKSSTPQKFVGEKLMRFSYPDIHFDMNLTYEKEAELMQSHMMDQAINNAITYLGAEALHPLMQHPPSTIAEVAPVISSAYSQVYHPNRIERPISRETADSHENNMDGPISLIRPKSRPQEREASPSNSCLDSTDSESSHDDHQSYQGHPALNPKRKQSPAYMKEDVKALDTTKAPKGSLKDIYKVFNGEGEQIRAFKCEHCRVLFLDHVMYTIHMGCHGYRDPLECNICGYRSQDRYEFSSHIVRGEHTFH
# T4 sequence (Q96SW2 whole entry): as the sequence (Q96SW2 whole entry) above
# T4 sequence (Q16531 whole entry partner): as the sequence (Q16531 whole entry partner) above
# T6 sequence (Q9UKT9 whole entry): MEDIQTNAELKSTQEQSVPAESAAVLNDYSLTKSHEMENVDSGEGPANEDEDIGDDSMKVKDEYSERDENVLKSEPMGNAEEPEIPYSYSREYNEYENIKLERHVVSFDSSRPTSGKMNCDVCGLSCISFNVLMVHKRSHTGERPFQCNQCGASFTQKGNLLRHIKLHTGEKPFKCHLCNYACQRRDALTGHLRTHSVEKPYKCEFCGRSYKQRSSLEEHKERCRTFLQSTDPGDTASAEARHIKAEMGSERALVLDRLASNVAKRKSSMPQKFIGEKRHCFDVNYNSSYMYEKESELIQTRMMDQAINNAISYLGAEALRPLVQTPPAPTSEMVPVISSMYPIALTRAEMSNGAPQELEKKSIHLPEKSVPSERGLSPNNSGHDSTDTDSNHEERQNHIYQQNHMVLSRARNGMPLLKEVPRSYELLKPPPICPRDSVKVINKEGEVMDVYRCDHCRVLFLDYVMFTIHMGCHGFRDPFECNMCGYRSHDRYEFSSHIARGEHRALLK
# T6 sequence (Q96SW2 whole entry): as the sequence (Q96SW2 whole entry) above
# T6 sequence (Q16531 whole entry partner): as the sequence (Q16531 whole entry partner) above
compound,measurement,setting,value
O=C1CCC(N2Cc3cc(CN4CCC(N(c5ccccc5)c5ccccc5)CC4)ccc3C2=S)C(=O)N1 (centres unmarked),IC50,[1],5 to 10 nM
same,IC50,[2],< 5 nM
same,GSPT1 substrate protein remaining %,GSPT1,A (0% ≤ substrate protein remaining % ≤ 80%)
same,IC50,"[3]; read-out: HTRF IC50; CRBN binding, HTRF, 3 hours at room temperature",100 to 500 nM
same,IC50,[4],< 5 nM
same,Wee1 substrate protein remaining %,WEE1,A (0% ≤ substrate protein remaining % ≤ 80%)
same,CK1α substrate protein remaining %,CK1α,B (80%< substrate protein remaining %≤ 100%)
same,IKZF2 substrate protein remaining %,IKZF2,A (0% ≤ substrate protein remaining % ≤ 80%)
same,IKZF 1 substrate protein remaining %,IKZF1,A (0% ≤ substrate protein remaining % ≤ 80%)
same,IKZF3 substrate protein remaining %,IKZF3,A (0% ≤ substrate protein remaining % ≤ 80%)
same,IC50,[5],< 5 nM
same,IC50,[6],10 to 50 nM
same,IC50,[7],5 to 10 nM
"Cc1ccc(Sc2ccccc2N2CCN(Cc3ccc4c(c3)C(=S)N(C3CCC(=O)NC3=O)C4)CC2)c(C)c1 (centres unmarked) [GT-05038, 3-(6-((4-(2-((2,4-dimethylphenyl)thio)phenyl)piperazin-1-yl)methyl)-1-thioxoisoindolin-2-yl)piperidine-2,6-dione]",GSPT1 substrate protein remaining %,GSPT1,A (0% ≤ substrate protein remaining % ≤ 80%)
same,IC50,[3]; [8],500 to 1000 nM
same,IC50,[4],100 to 500 nM
same,Wee1 substrate protein remaining %,WEE1,B (80%< substrate protein remaining %≤ 100%)
same,CK1α substrate protein remaining %,CK1α,B (80%< substrate protein remaining %≤ 100%)
same,IKZF2 substrate protein remaining %,IKZF2,A (0% ≤ substrate protein remaining % ≤ 80%)
same,IKZF 1 substrate protein remaining %,IKZF1,A (0% ≤ substrate protein remaining % ≤ 80%)
same,IKZF3 substrate protein remaining %,IKZF3,A (0% ≤ substrate protein remaining % ≤ 80%)
same,IC50,[5],500 to 1000 nM
same,IC50,[7],500 to 1000 nM
"O=C1CCC(N2Cc3cc(CN4CCN(C(c5ccccc5)c5ccccc5)CC4)ccc3C2=S)C(=O)N1 (centres unmarked) [GT-05104, 3-(5-((4-benzhydrylpiperazin-1-yl)methyl)-1-thioxoisoindolin-2-yl)piperidine-2,6-dione]",IC50,[1],50 to 100 nM
same,IC50,[2],100 to 500 nM
same,GSPT1 substrate protein remaining %,GSPT1,A (0% ≤ substrate protein remaining % ≤ 80%)
same,IC50,[3]; [8],500 to 1000 nM
same,IC50,[4],< 5 nM
same,Wee1 substrate protein remaining %,WEE1,A (0% ≤ substrate protein remaining % ≤ 80%)
same,CK1α substrate protein remaining %,CK1α,B (80%< substrate protein remaining %≤ 100%)
same,IKZF2 substrate protein remaining %,IKZF2,B (80%< substrate protein remaining %≤ 100%)
same,IKZF 1 substrate protein remaining %,IKZF1,B (80%< substrate protein remaining %≤ 100%)
same,IKZF3 substrate protein remaining %,IKZF3,B (80%< substrate protein remaining %≤ 100%)
same,IC50,[5],100 to 500 nM
same,IC50,[7],100 to 500 nM
"O=C1CCC(N2Cc3cc(CN4CCC(c5cccc(Cl)c5Cl)CC4)ccc3C2=S)C(=O)N1 (centres unmarked) [GT-05150, 3-(5-((4-(2,3-dichlorophenyl)piperidin-1-yl)methyl)-1-thioxoisoindolin-2-yl)piperidine-2,6-dione]",IC50,[1],100 to 500 nM
same,IC50,[2],50 to 100 nM
same,GSPT1 substrate protein remaining %,GSPT1,A (0% ≤ substrate protein remaining % ≤ 80%)
same,IC50,[3]; [8],500 to 1000 nM
same,IC50,[4],5 to 10 nM
same,Wee1 substrate protein remaining %,WEE1,A (0% ≤ substrate protein remaining % ≤ 80%)
same,CK1α substrate protein remaining %,CK1α,B (80%< substrate protein remaining %≤ 100%)
same,IKZF2 substrate protein remaining %,IKZF2,A (0% ≤ substrate protein remaining % ≤ 80%)
same,IKZF 1 substrate protein remaining %,IKZF1,A (0% ≤ substrate protein remaining % ≤ 80%)
same,IKZF3 substrate protein remaining %,IKZF3,B (80%< substrate protein remaining %≤ 100%)
same,IC50,[5],10 to 50 nM
same,IC50,[6],100 to 500 nM
same,IC50,[7],50 to 100 nM
"O=C1CCC(N2Cc3cc(CN4CCC(Nc5ccccc5-c5ccc(Cl)cc5)CC4)ccc3C2=S)C(=O)N1 (centres unmarked) [GT-05109, 3-(5-((4-((4'-chloro-[1,1'-biphenyl]-2-yl)amino)piperidin-1-yl)methyl)-1-thioxoisoindolin-2-yl)piperidine-2,6-dione]",IC50,[1],10 to 50 nM
same,IC50,[2],5 to 10 nM
same,GSPT1 substrate protein remaining %,GSPT1,A (0% ≤ substrate protein remaining % ≤ 80%)
same,IC50,[3]; [8],500 to 1000 nM
same,IC50,[4],< 5 nM
same,Wee1 substrate protein remaining %,WEE1,A (0% ≤ substrate protein remaining % ≤ 80%)
same,CK1α substrate protein remaining %,CK1α,A (0% ≤ substrate protein remaining % ≤ 80%)
same,IKZF2 substrate protein remaining %,IKZF2,A (0% ≤ substrate protein remaining % ≤ 80%)
same,IKZF 1 substrate protein remaining %,IKZF1,A (0% ≤ substrate protein remaining % ≤ 80%)
same,IKZF3 substrate protein remaining %,IKZF3,A (0% ≤ substrate protein remaining % ≤ 80%)
same,IC50,[5],< 5 nM
same,IC50,[6],10 to 50 nM
same,IC50,[7],5 to 10 nM
"Cc1ccc(C2=CCN(Cc3ccc4c(c3)CN(C3CCC(=O)NC3=O)C4=S)CC2)s1 (centres unmarked) [GT-05111, 3-(5-((4-(5-methylthiophen-2-yl)-3,6-dihydropyridin-1(2H)-yl)methyl)-1-thioxoisoindolin-2-yl)piperidine-2,6-dione]",IC50,[1],100 to 500 nM
same,IC50,[2],50 to 100 nM
same,GSPT1 substrate protein remaining %,GSPT1,A (0% ≤ substrate protein remaining % ≤ 80%)
same,IC50,[3]; [8],100 to 500 nM
same,IC50,[4],10 to 50 nM
same,Wee1 substrate protein remaining %,WEE1,A (0% ≤ substrate protein remaining % ≤ 80%)
same,CK1α substrate protein remaining %,CK1α,A (0% ≤ substrate protein remaining % ≤ 80%)
same,IKZF2 substrate protein remaining %,IKZF2,A (0% ≤ substrate protein remaining % ≤ 80%)
same,IKZF 1 substrate protein remaining %,IKZF1,A (0% ≤ substrate protein remaining % ≤ 80%)
same,IKZF3 substrate protein remaining %,IKZF3,A (0% ≤ substrate protein remaining % ≤ 80%)
same,IC50,[5],50 to 100 nM
same,IC50,[6],100 to 500 nM
same,IC50,[7],50 to 100 nM
"O=C1CCC(N2Cc3cc(CN4CCN(c5cccc6sccc56)CC4)ccc3C2=S)C(=O)N1 (centres unmarked) [GT-05088, 3-(5-((4-(benzo[b]thiophen-4-yl)piperazin-1-yl)methyl)-1-thioxoisoindolin-2-yl)piperidine-2,6-dione]",IC50,[1],100 to 500 nM
same,IC50,[2],10 to 50 nM
same,GSPT1 substrate protein remaining %,GSPT1,A (0% ≤ substrate protein remaining % ≤ 80%)
same,IC50,[3]; [8],100 to 500 nM
same,IC50,[4],10 to 50 nM
same,Wee1 substrate protein remaining %,WEE1,A (0% ≤ substrate protein remaining % ≤ 80%)
same,CK1α substrate protein remaining %,CK1α,B (80%< substrate protein remaining %≤ 100%)
same,IKZF2 substrate protein remaining %,IKZF2,A (0% ≤ substrate protein remaining % ≤ 80%)
same,IKZF 1 substrate protein remaining %,IKZF1,A (0% ≤ substrate protein remaining % ≤ 80%)
same,IKZF3 substrate protein remaining %,IKZF3,A (0% ≤ substrate protein remaining % ≤ 80%)
same,IC50,[5],50 to 100 nM
same,IC50,[6],100 to 500 nM
same,IC50,[7],50 to 100 nM
"O=C1CCC(N2Cc3cc(CN4CC=C(c5ccco5)CC4)ccc3C2=S)C(=O)N1 (centres unmarked) [GT-05147, 3-(5-((4-(furan-2-yl)-3,6-dihydropyridin-1(2H)-yl)methyl)-1-thioxoisoindolin-2-yl)piperidine-2,6-dione]",IC50,[2],100 to 500 nM
same,GSPT1 substrate protein remaining %,GSPT1,A (0% ≤ substrate protein remaining % ≤ 80%)
same,IC50,[3]; [8],< 100 nM
same,IC50,[4],10 to 50 nM
same,Wee1 substrate protein remaining %,WEE1,A (0% ≤ substrate protein remaining % ≤ 80%)
same,CK1α substrate protein remaining %,CK1α,B (80%< substrate protein remaining %≤ 100%)
same,IKZF2 substrate protein remaining %,IKZF2,A (0% ≤ substrate protein remaining % ≤ 80%)
same,IKZF 1 substrate protein remaining %,IKZF1,A (0% ≤ substrate protein remaining % ≤ 80%)
same,IKZF3 substrate protein remaining %,IKZF3,A (0% ≤ substrate protein remaining % ≤ 80%)
same,IC50,[5],100 to 500 nM
"Cc1ccc(Sc2ccccc2N2CCN(Cc3ccc4c(c3)CN(C3CCC(=O)NC3=O)C4=S)CC2)c(C)c1 (centres unmarked) [GT-05092, 3-(5-((4-(2-((2,4-dimethylphenyl)thio)phenyl)piperazin-1-yl)methyl)-1-thioxoisoindolin-2-yl)piperidine-2,6-dione]",IC50,[1],100 to 500 nM
same,IC50,[2],10 to 50 nM
same,GSPT1 substrate protein remaining %,GSPT1,A (0% ≤ substrate protein remaining % ≤ 80%)
same,IC50,[3]; [8],500 to 1000 nM
same,IC50,[4],10 to 50 nM
same,Wee1 substrate protein remaining %,WEE1,A (0% ≤ substrate protein remaining % ≤ 80%)
same,CK1α substrate protein remaining %,CK1α,B (80%< substrate protein remaining %≤ 100%)
same,IKZF2 substrate protein remaining %,IKZF2,A (0% ≤ substrate protein remaining % ≤ 80%)
same,IKZF 1 substrate protein remaining %,IKZF1,A (0% ≤ substrate protein remaining % ≤ 80%)
same,IKZF3 substrate protein remaining %,IKZF3,A (0% ≤ substrate protein remaining % ≤ 80%)
same,IC50,[5],50 to 100 nM
same,IC50,[6],100 to 500 nM
same,IC50,[7],50 to 100 nM
